Key:
[1] = system: CSV, ABCB5, EGFR, FOXQ1, E-Cadherin in MDA-MB-231-Br cells; test: High resolution digital pathology of mesenchymal/epithelial markers, MDA-MB-231-Br; type: cell-based, human
Protocol: To examine the signature of CD8, CSV, EGFR, ABCB5, FOXQ1, commercial PD-L1-28-8, nuclear PD-L1, cytoplasmic PDL1 in MDA-MB-231 TNBC cells/TNBC brain cancer clone cells (untreated or treated with bicyclic inhibitors targeting nuclear PD-L1-PTM1). MDA-MB-231/MDA-MB-231-Br cells were permeabilised by incubating with 0.5% Triton X-100 for 15 min, blocked with 1% BSA in PBS and were probed with either CSV (Mouse host), CD8 (mouse host), EGFR (Rabbit host), ABCB5 (Goat Host), ALDH1A (Rabbit Host), NODAL (Goat Host), nuclear PDL1 (rabbit host), cytoplasmic PD-L1 (rabbit host) visualized with a donkey anti-rabbit AF 488, anti-mouse AF 568, donkey anti-goat 647. […] Digital images were analyzed using automated ASI software (Applied Spectral Imaging, Carlsbad, CA) to determine the distribution and intensities automatically with automatic thresholding and background correction of the average nuclear fluorescence intensity (NFI), allowing for the specific targeting of expression of proteins of interest. Digital images were also analysed using ImageJ software (ImageJ, NIH, Bethesda, MD, USA) to determine the total cell fluorescence or cell surface only fluorescence for non-permeabilised cells. Digital images were analysed using ImageJ software (ImageJ, NIH, Bethesda, MD, USA) to determine either the Total Nuclear Fluorescent Intensity (TNFI), the Total Cytoplasmic Fluorescent Intensity (TCFI). […]

PDL2:IMPα1 complex = molecular target: T1, PDL2:IMPα1 complex (Homo sapiens, UniProt P52292); test: Binding specificity assay (DUOLINK PDL2 and IMPα1); type: cell-based; conditions: MDA-MB-231, any concentration (10 μM to 0.00975 μM)
T1 construct: with concentrations ranging from 10 μM to 0.00975 μM; endogenous in cells; host or cells: MDA-MB-231
Protocol: MDA-MB-231 cells were treated with DL-2; with concentrations ranging from 10 μM to 0.00975 μM. Cover slips were mounted on glass microscope slides with Prolong nucleus glass Antifade reagent (Life Technologies). PDL2 and IMPα1 DUOLINK Digital images were analyzed using ImageJ software (ImageJ, NIH, Bethesda, MD, USA) and graphs represent the mean DOT Fluorescent Intensity in the nucleus or the cytoplasm compartments with significant differences calculated as per Kruskal-Wallis one-way ANOVA.

MDA-MB-231-Br cells = test: WST-1 cell proliferation assay, MDA-MB-231-Br; type: cell-based, human
CT26 cells = test: WST-1 cell proliferation assay, CT26; type: cell-based, mouse; conditions: CT26, WST-1, 72 hours
Protocol: (A) CT26, 4T1 or MDA-MB-231 Cells were treated with inhibitors for 72 hours. Following inhibition, media was removed and replaced with WST-1 cell proliferation reagent. Absorbance was recorded at 450 nm after 1 hour. Data represent a single independent experiment performed in triplicate. Results are graphed as mean +/− standard error (SE). B) MDA-MB-231 or CT26 cancer cells were treated with vehicle control, DL-2-Batch 1 (original stock), DL-2-Batch 2 (current stock), DL-2-TBAB or linear PDL1. Cells were permeabilised and were probed with the DUOLINK ligation assay. Cover slips were mounted on glass microscope slides with ProLong nucblue glass Antifade reagent (Life Technologies). PDL1Ac and IMPα1 DUOLINK Digital images were analysed using ImageJ software (ImageJ, NIH, Bethesda, MD, USA) and graphs represent the mean DOT Fluorescent Intensity in the nucleus or the cytoplasm compartments with significant differences calculated as per one-way ANOVA comparison. (C) MDA-MB-231 or CT26 cancer cells were treated with vehicle control, DL-2-Batch 1 (Original stock), DL-2-Batch 2 (current stock), DL-2-TBAB or linear PDL1. Cells were permeabilised and were probed with the DUOLINK ligation assay. Cover slips were mounted on glass microscope slides with ProLong nucblue glass Antifade reagent (Life Technologies). PDL1-unmodified and IMPα1 DUOLINK digital images were analysed using ImageJ software (ImageJ, NIH, Bethesda, MD, USA) and graphs represent the mean DOT fluorescent intensity in the nucleus or the cytoplasm compartments with significant differences calculated as per one-way ANOVA comparison.
4T1, CT26 or MDA-MB-231 cancer cell lines were treated with DL-2 or DL-2-D bicyclic inhibitors for 72 hours. Following inhibition, media was removed and replaced with WST-1 cell proliferation reagent. Absorbance was recorded at 450 nm after 1 hour. Data represent a single independent experiment performed in triplicate; results are graphed as mean +/− standard error (SE).

PDL2 = test: Immunofluorescence microscopy of nuclear PDL2; type: cell-based, human; conditions: MDA-MB-231 breast cancer cell line
Protocol: The cells were fixed and immunofluorescence microscopy was performed. Digital images were analysed using ImageJ software (ImageJ, NIH, Bethesda, MD, USA) to determine the mean nuclear fluorescent intensity (TNFI) in cells measured using ImageJ to select the nucleus minus background (n=>500 cells/sample).

In the case of `CCCCCCCCCCCCCC(=O)NC(C)C(=O)NC1CSCc2cc3cc(c2)CSC[C@H](NC(=O)[C@H](Cc2ccccc2)NC(=O)[C@H](C(C)CC)NC(=O)[C@H](Cc2ccccc2)NC(=O)[C@H]([C@@H](C)O)NC(=O)C(CC(C)C)NC1=O)C(=O)N[C@@H](CCCNC(C)=N)C(=O)N[C@@H](CC(C)C)C(=O)N[C@@H](CCCNC(=N)N)C(=O)N[C@@H](CCCCN)C(=O)NCC(=O)N[C@@H](CCCNC(=N)N)C(=O)NC(C(=O)N[C@@H](CCSC)C(=O)NC(CCSC)C(=O)N[C@@H](CC(=O)O)C(=O)NC(C(=O)N[C@@H](CCCCN)C(=O)NC(CCCCN)C(=O)O)C(C)C)CSC3` (mixture of isomers) [DL-2], the “expression of the epithelial marker E-Cadherin” value [1] was “able to induce expression”, the “mesenchymal stem-like resistant protein markers (CSV, ABCB5, EGFR, FOXQ1)” value ([1]; vs vehicle control) was “significantly inhibit” and the “PDL2:IMPα1 complex (DUOLINK)” value (PDL2:IMPα1 complex) was “no significant effect”. The inhibition of proliferation (MDA-MB-231-Br cells; WST-1) was “able to inhibit proliferation”, the “potency of proliferation inhibition relative to DL-1” value (MDA-MB-231-Br cells; higher potency than DL-1) was 2-3 fold and the inhibition of proliferation (CT26 cells) was “significantly inhibit the proliferation”. The inhibition of proliferation (CT26 cells; listed as DL-2-TBMB) was “able to effectively inhibit the proliferation” and the “nuclear expression of PDL2” value (PDL2) was “no effect at all”.

Source: patent publication US20240117005A1, “NOVEL BICYCLIC PEPTIDES” (THE COUNCIL OF THE QUEENSLAND INSTITUTE OF MEDICAL RESEARCH, priority 2021, published 2024)
